From publication PMC7367925, “The EU-ToxRisk method documentation, data processing and chemical testing pipeline for the regulatory use of new approach methods” (Archives of Toxicology, 2020)

Experiments:
Estrogen receptor alpha = biological target: T1, Estrogen receptor alpha (Homo sapiens, UniProt P03372); assay: ERa-anti CALUX; format: cell-based; details: 24 h exposure, lowest effect level PC20, reference agonist at EC50, means from 3 assay runs
T1 construct: host or cells: U-2 OS
Experimental: (§1) After 24 h, exposure medium was prepared. […] All samples were tested in triplicates. […] Fig. SM_4. […] Fig. SM_4.
Cell line Endpoint effect Reference compound […]
ERa-anti CALUX Estrogen receptor antagonists PC20 tamoxifen […]
Cytotox CALUX Cytoxicity PC20 tributyltinacetate
(§2) Supplementary Material SM_4
(§3) Overview of CALUX assays.
(§4) This is defined as the concentration of test compound […]
(§5) for an antagonist assay is a PC20.
(§6) PC = positive control. FI = fold induction. PC10: concentration where test compound causes an activation equal to 10% of the maximum effect (positive control). PC20: concentration where test compound causes […]
(§7) FI=1.5: concentration where test
(§8) (A) exemplary graph of concentration- […]
(§9) receptor antagonism assay with PC20 as lowest-effect-level. (C) exemplary graph for assay with 1.5 fold inductionas lowest effect level. 9

Androgen receptor = biological target: T2, Androgen receptor (Homo sapiens, UniProt P10275); format: cell-based; details: 24 h exposure, lowest effect level PC20, reference agonist at EC50, means from 3 assay runs
T2 construct: host or cells: U-2 OS
T2 sequence (P10275 1-920): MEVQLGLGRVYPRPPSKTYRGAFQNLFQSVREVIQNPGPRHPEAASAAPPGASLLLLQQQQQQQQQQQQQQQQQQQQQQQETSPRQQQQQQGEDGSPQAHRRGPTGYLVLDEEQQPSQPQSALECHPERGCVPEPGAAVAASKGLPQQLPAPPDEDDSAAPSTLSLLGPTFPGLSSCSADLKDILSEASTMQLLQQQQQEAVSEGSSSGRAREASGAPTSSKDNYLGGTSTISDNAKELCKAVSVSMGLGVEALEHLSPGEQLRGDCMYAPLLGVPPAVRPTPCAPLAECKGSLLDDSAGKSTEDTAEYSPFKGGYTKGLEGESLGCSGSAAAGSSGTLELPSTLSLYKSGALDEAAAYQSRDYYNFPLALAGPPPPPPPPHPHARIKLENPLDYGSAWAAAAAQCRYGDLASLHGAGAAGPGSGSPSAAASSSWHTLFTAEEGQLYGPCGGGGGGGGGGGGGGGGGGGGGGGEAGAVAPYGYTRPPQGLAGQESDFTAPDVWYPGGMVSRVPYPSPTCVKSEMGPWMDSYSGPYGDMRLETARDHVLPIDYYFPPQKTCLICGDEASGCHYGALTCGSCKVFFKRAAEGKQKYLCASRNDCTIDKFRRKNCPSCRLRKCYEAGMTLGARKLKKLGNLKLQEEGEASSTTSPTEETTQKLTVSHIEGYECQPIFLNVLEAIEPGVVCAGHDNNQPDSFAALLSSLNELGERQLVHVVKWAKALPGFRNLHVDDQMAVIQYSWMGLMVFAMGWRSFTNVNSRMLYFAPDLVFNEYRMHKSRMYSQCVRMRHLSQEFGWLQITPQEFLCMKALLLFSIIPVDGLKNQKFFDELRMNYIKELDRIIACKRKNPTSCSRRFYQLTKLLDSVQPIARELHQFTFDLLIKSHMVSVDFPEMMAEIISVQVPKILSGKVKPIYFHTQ
Experimental: as §1, §2, §3, §4, §5, §6, §7, §8, §9

Progesterone receptor = biological target: T3, Progesterone receptor (Homo sapiens, UniProt P06401); assay: PR-anti CALUX; format: cell-based; details: 24 h exposure, lowest effect level PC20, reference agonist at EC50, means from 3 assay runs
T3 construct: host or cells: U-2 OS
T3 sequence (P06401 1-933): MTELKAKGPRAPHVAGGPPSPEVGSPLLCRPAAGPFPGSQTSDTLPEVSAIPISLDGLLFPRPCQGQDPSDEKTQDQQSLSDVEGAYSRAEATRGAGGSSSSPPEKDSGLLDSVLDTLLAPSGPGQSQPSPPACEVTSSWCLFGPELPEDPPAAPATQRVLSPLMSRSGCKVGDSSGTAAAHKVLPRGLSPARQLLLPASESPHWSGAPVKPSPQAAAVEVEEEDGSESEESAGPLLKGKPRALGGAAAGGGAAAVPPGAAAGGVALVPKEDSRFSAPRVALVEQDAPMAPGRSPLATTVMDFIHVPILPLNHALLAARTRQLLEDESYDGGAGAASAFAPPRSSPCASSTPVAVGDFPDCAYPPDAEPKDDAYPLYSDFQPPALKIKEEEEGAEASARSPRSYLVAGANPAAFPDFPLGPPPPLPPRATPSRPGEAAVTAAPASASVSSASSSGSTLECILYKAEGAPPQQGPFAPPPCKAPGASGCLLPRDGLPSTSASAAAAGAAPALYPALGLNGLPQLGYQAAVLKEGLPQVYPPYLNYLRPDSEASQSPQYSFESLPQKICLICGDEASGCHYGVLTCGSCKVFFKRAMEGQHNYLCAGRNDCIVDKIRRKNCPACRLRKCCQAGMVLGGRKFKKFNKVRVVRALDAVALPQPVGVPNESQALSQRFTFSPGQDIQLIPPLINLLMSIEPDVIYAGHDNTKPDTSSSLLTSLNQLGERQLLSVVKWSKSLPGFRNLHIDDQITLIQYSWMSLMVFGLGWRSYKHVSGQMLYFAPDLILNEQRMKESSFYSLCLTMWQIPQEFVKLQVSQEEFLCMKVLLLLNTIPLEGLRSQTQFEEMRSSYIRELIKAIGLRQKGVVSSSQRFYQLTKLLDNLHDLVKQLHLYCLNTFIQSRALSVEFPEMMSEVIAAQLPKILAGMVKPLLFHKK
Experimental: as §1, §2, §3, §4, §5, §6, §7, §8, §9

Pregnane X receptor = biological target: T4, Pregnane X receptor (Homo sapiens, UniProt O75469); assay: PXR CALUX; format: cell-based; details: 24 h exposure, lowest effect level PC10, means from 3 assay runs
T4 construct: host or cells: U-2 OS
T4 sequence (O75469 1-434): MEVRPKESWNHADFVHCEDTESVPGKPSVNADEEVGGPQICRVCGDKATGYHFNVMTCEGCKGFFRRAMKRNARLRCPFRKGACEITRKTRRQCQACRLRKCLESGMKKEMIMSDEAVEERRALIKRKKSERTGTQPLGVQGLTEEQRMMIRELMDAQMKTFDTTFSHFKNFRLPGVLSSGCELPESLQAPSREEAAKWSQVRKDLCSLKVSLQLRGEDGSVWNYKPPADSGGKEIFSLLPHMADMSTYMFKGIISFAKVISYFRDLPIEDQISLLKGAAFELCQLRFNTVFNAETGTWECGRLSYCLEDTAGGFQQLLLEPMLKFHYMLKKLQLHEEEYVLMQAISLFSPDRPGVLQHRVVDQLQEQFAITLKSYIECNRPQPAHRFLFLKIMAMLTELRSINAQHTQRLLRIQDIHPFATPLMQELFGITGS
Experimental: as §1, §2, §3, §4, §5, §6, §7, §8, §9

[1] = design: method as in Nyffeler et al. 2018; details: cell culture plastic; ref Nyffeler et al. 2018; cited from earlier work
[2] = tested on: U-2 OS reporter cell lines battery; assay: CALUX reporter gene assay battery as a whole; details: all CALUX assays, 13 concentrations, 24 h exposure

T1 sequence (P03372 whole entry): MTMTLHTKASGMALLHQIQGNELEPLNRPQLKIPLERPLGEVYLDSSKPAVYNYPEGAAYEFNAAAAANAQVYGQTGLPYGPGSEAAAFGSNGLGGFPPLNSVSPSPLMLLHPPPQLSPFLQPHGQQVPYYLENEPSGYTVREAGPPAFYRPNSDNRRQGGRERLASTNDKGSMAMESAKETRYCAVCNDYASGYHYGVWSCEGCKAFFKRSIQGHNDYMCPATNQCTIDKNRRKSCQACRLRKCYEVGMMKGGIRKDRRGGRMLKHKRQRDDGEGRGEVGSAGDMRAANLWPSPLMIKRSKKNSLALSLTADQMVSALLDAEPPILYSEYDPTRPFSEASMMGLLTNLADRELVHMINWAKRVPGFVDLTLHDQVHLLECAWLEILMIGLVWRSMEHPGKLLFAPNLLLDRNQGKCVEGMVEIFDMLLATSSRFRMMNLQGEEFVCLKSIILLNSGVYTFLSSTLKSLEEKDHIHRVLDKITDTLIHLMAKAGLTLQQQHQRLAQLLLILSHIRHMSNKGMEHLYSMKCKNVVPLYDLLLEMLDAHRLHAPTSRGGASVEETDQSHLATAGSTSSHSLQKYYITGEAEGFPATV

For `Clc1cc(Cl)c(-c2cc(Cl)c(Cl)c(Cl)c2Cl)cc1Cl` [PCB180, polychlorinated biphenyl 180], the “PoD Erα - anta” value (Estrogen receptor alpha) was 6.0 -log(M), the “PoD AR - anta” value (Androgen receptor) was 6.1 -log(M) and the “PoD PR - anta” value (Progesterone receptor) was 6.3 -log(M). The “PoD PXR - ago” value (Pregnane X receptor) was 5.5 -log(M), the “fraction of the compound bound to plastic” value [1] was “about one third” and the “response profile over the CALUX battery (in words)” value [2] was “only activated nuclear hormone receptor related assays”.
